Assays:
[1] = tested on: Escherichia coli expressing NDM-1 (CLB30005, CLB30016); assay type: cell-based; conditions: with imipenem 1 μg/ml; 95% inhibition of bacterial growth
Method in brief: (§1)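 Clinical strains grown overnight on blood agar, then diluted 1:100 in 1.1× CAMHB and exposed to test compound with imipenem at 1 μg/ml. Incubation was 22–24 h at 35° C; growth was read by absorbance to find the compound concentration restoring imipenem susceptibility.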

[2] = tested on: Serratia marcescens expressing IMP-1 (CL5741); assay type: cell-based; conditions: with imipenem 1 μg/ml; 95% inhibition of bacterial growth
Method in brief: as §1

[3] = tested on: Klebsiella pneumoniae expressing VIM-1 (IHMA599644); assay type: cell-based; conditions: with imipenem 1 μg/ml; 95% inhibition of bacterial growth
Method in brief: as §1

VIM-1 = VIM-1 (Pseudomonas aeruginosa (strain ATCC 15692 / DSM 22644 / CIP 104116 / JCM 14847 / LMG 12228 / 1C / PRS 101 / PAO1), UniProt A0A0F7KYQ8); assay: biochemical; conditions: CCF2-FA substrate, 2 hours at 25° C
Method in brief: (§2)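 Test compound, enzyme and the FRET cephalosporin substrate CCF2-FA are incubated together for 2 hours at 25° C. Cleavage is followed by fluorescence, and IC50 values are derived from semi-logarithmic inhibition curves fitted with a 4-parameter model.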

NDM-1 = NDM-1 (Klebsiella pneumoniae, UniProt C7C422); assay: biochemical; assay type: biochemical; conditions: CCF2-FA substrate, 2 hours at 25° C; read-out: NDM-1 IC50
Method in brief: as §2

IMP-1 = IMP-1 (Serratia marcescens, UniProt P52699); assay: biochemical; assay type: biochemical; conditions: CCF2-FA substrate, 2 hours at 25° C; read-out: IMP-1 IC50
Method in brief: as §2

[4] = tested on: P. aeruginosa expressing IMP-1, efflux− (MB9799); assay: Efflux: concentration of MBL inhibitor which restores susceptibility to imipenem; assay type: cell-based, Pseudomonas aeruginosa; conditions: imipenem at 2 μg/mL, in the presence of a class A, C, D serine β-lactamase inhibitor closely related to relebactam
From the text: (§3) The strain background is Pseudomonas aeruginosa PAO1.

[5] = tested on: P. aeruginosa expressing IMP-1, efflux+ (MB9798); assay type: cell-based, Pseudomonas aeruginosa; conditions: for P. aeruginosa expressing IMP-1, efflux+ (MB9798) MITC95: imipenem at 2 μg/mL, in the presence of a class A, C, D serine β-lactamase inhibitor closely related to relebactam; for Efflux ratio: ratio MITC95 PA_9798/MITC95 PA_9799
From the text: as §3

IMP-1, sequence (P52699 whole entry, looked up, species assumed): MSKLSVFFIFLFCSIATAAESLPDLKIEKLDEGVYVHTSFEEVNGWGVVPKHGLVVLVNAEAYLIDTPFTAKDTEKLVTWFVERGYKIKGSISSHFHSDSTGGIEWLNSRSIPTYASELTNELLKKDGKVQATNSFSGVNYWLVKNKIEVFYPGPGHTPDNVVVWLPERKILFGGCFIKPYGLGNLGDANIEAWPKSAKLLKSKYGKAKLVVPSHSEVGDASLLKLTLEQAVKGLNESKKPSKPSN
NDM-1, sequence (C7C422 whole entry, looked up, species assumed): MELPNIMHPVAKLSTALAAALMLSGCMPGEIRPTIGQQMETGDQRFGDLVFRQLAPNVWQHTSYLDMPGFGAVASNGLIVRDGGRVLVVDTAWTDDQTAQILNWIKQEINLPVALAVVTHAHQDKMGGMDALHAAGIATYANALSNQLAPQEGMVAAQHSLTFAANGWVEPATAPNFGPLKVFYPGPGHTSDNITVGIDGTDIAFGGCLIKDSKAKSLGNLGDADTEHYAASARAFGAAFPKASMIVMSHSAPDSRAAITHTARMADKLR

SMILES	Escherichia coli expressing NDM-1 (CLB30016) MITC95 [1]	Serratia marcescens expressing IMP-1 (CL5741) MITC95 [2]	Klebsiella pneumoniae expressing VIM-1 (IHMA599644) MITC95 [3]	IC50 (VIM-1)	IC50 (NDM-1)	IC50 (IMP-1)	P. aeruginosa expressing IMP-1, efflux− (MB9799) MITC95 [4]	P. aeruginosa expressing IMP-1, efflux+ (MB9798) MITC95 [5]	Efflux ratio [5]
COc1ccc(-c2ccc(S(=O)(=O)CCN)c(S(N)(=O)=O)c2-c2nnn[nH]2)c2[nH]c(C(F)(F)F)nc12.O=C(O)C(F)(F)F [Example 164, 2-((4-(4-methoxy-2-(trifluoromethyl)-1H-benzo[d]imidazol-7-yl)-2-sulfamoyl-3-(1H-tetrazol-5-yl)phenyl)sulfonyl)ethanaminium 2,2,2-trifluoroacetate]	6.25 µM	3.125 µM	6.25 µM	143 pM	147 pM	233 pM	3.125 µM	6.25 µM	2.00
NCCS(=O)(=O)c1ccc(-c2ccc3c(=O)nc[nH]c3c2)c(-c2nnn[nH]2)c1S(N)(=O)=O.O=C(O)C(F)(F)F [Example 165, 2-((4-(4-oxo-1,4-dihydroquinazolin-7-yl)-2-sulfamoyl-3-(1H-tetrazol-5-yl)phenyl)sulfonyl)ethanaminium 2,2,2-trifluoroacetate]	3.125 µM	3.125 µM	6.25 µM	571 pM	2480 pM	1600 pM	3.125 µM	12.5 µM	4.00
NCCS(=O)(=O)c1ccc(-c2ccc3c(c2)CNC3=O)c(-c2nnn[nH]2)c1S(N)(=O)=O.O=C(O)C(F)(F)F [Example 166, 2-((4-(1-oxoisoindolin-5-yl)-2-sulfamoyl-3-(1H-tetrazol-5-yl)phenyl)sulfonyl)ethanaminium 2,2,2-trifluoroacetate]	1.563 µM	3.125 µM	6.25 µM	326 pM	2790 pM	1510 pM	1.563 µM	12.5 µM	8.00
NCCS(=O)(=O)c1ccc(-c2ccc3[nH]ncc3c2)c(-c2nnn[nH]2)c1S(N)(=O)=O.O=C(O)C(F)(F)F [Example 167, 2-((4-(1H-indazol-5-yl)-2-sulfamoyl-3-(1H-tetrazol-5-yl)phenyl)sulfonyl)ethanaminium 2,2,2-trifluoroacetate]	6.25 µM	3.125 µM	3.125 µM	343 pM	882 pM	1070 pM	0.7813 µM	6.25 µM	8.00
NCCS(=O)(=O)c1ccc(-c2cnc(N)c(F)c2)c(-c2nnn[nH]2)c1S(N)(=O)=O.O=C(O)C(F)(F)F [Example 168, 2-((4-(6-amino-5-fluoropyridin-3-yl)-2-sulfamoyl-3-(1H-tetrazol-5-yl)phenyl)sulfonyl)ethanaminium 2,2,2-trifluoroacetate]	1.563 µM	3.125 µM	6.25 µM	515 pM	2500 pM	2020 pM	1.563 µM	6.25 µM	4.00
